Data: US20230322785A1, “ADENOSINE A2A AND A2B RECEPTOR DUAL ANTAGONISTS FOR IMMUNO-ONCOLOGY” (Merck Sharp & Dohme LLC, priority 2020, published 2023)
pIC50: −log10 of the molar value.

target: T1, human A2A adenosine receptor (Homo sapiens, UniProt P29274); assay: A2A binding affinity, Method (B): scintillation proximity assay (SPA) with [3H]SCH58261; conditions: membranes of HEK293 or CHO cells expressing the human receptor
T1 construct: expressed in transfected cells; host or cells: HEK293 or CHO cells
T1 sequence (P29274 whole entry): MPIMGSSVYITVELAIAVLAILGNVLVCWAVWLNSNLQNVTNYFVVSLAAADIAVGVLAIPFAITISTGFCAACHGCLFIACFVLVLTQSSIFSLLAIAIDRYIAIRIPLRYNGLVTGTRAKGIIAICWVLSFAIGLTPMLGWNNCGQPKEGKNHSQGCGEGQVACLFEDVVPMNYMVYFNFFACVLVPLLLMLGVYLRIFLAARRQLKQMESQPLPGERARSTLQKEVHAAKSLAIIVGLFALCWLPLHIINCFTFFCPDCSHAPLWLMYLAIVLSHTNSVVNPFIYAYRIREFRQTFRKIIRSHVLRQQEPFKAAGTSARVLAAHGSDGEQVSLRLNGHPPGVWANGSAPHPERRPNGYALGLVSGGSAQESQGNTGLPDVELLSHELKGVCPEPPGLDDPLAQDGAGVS
How it was run: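 Membranes from HEK293 or CHO cells expressing the receptor were pretreated with 20 µg/mL adenosine deaminase for 15 min, then bound to WGA SPA beads. [3H]SCH58261 was added at 1.25 nM in Ca/Mg-free DPBS with 10 mM MgCl2, incubated 1 h at RT, then settled 1 h. Non-specific binding used 1 µM CGS 15943. IC50 came from 4-parameter logistic fits.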

`COc1cccc2c1nc(N)n1nc(CNC(C)(C)c3cccnc3)nc21` [Example 7.5, 7-methoxy-2-(((2-(pyridin-3-yl)propan-2-yl)amino)methyl)-[1,2,4]triazolo[1,5-c]quinazolin-5-amine] and `COc1cccc2c1nc(N)n1nc(CNC(C)(C)c3ccccn3)nc21` [Example 7.3, 7-methoxy-2-(((2-(pyridin-2-yl)propan-2-yl)amino)methyl)-[1,2,4]triazolo[1,5-c]quinazolin-5-amine] are within 0.2 log units of each other in pIC50: 7.69 for the first, 7.73 for the second.

`COc1cccc2c1nc(N)n1nc(CNC(C)(C)C(F)(F)F)nc21` [Example 10.10, 7-methoxy-2-(((1,1,1-trifluoro-2-methylpropan-2-yl)amino)methyl)-[1,2,4]triazolo[1,5-c]quinazolin-5-amine] and `COc1cccc2c1nc(N)n1nc(CN[C@@H](C)C(F)(F)F)nc21` [Example 10.9] are within 0.2 log units of each other in pIC50: 8.32 for the first, 8.23 for the second.

`COc1cccc2c1nc(N)n1nc(CNCc3ccc(OC(F)(F)F)cc3)nc21` [Example 8.6, 7-methoxy-2-(((4-(trifluoromethoxy)benzyl)amino)methyl)-[1,2,4]triazolo[1,5-c]quinazolin-5-amine] and `COc1cccc2c1nc(N)n1nc(CNCc3ccc(C(F)(F)F)cc3)nc21` [Example 7.1, 7-methoxy-2-(((4-(trifluoromethyl)benzyl)amino)methyl)-[1,2,4]triazolo[1,5-c]quinazolin-5-amine] are the same in pIC50: 8.05 for the first, 8.05 for the second.

First: COc1cccc2c1nc(N)n1nc(CN(Cc3ccc(OC(C)C)nc3)CC3CC3)nc21 [Example 16.7, 2-(((cyclopropylmethyl)((6-isopropoxypyridin-3-yl)methyl)amino)methyl)-7-methoxy-[1,2,4]triazolo[1,5-c]quinazolin-5-amine]
Second: COc1cccc2c1nc(N)n1nc(CNCC3CC3)nc21 [Example 10.12, 2-(((cyclopropylmethyl)amino)methyl)-7-methoxy-[1,2,4]triazolo[1,5-c]quinazolin-5-amine]
The pIC50 of the first is 0.31 log units higher: 7.87 for the first, 7.56 for the second. The first is the more potent here.

`COc1cccc2c1nc(N)n1nc(CNCc3ccc(Br)cc3)nc21` [Example 7.9, 2-(((4-bromobenzyl)amino)methyl)-7-methoxy-[1,2,4]triazolo[1,5-c]quinazolin-5-amine] and `COc1cccc2c1nc(N)n1nc(CNCc3ccc(C(C)(C)C)cc3)nc21` [Example 7.6, 2-(((4-(tert-butyl)benzyl)amino)methyl)-7-methoxy-[1,2,4]triazolo[1,5-c]quinazolin-5-amine] are within 0.2 log units of each other in pIC50: 8.27 for the first, 8.37 for the second.

Compared with `COc1cccc2c1nc(N)n1nc(CNC(=O)CCc3ccc(C(F)(F)F)cc3)nc21` [Example 2.3], `COc1cccc2c1nc(N)n1nc(CNCc3cccc(C(F)(F)F)c3)nc21` [Example 8.5, 7-methoxy-2-(((3-(trifluoromethyl)benzyl)amino)methyl)-[1,2,4]triazolo[1,5-c]quinazolin-5-amine] is 0.40 log units lower in pIC50: 8.35 for the first, 7.95 for the second.

Going from `COc1cccc2c1nc(N)n1nc(CNCC(F)(F)F)nc21` [Example 10.5, 7-methoxy-2-(((2,2,2-trifluoroethyl)amino)methyl)-[1,2,4]triazolo[1,5-c]quinazolin-5-amine] to `COc1cccc2c1nc(N)n1nc(CNCc3ccccc3C(F)(F)F)nc21` [Example 8.4, 7-methoxy-2-(((2-(trifluoromethyl)benzyl)amino)methyl)-[1,2,4]triazolo[1,5-c]quinazolin-5-amine], the pIC50 rises from 8.23 to 8.49 (0.26 log units).

First: COc1cccc2c1nc(N)n1nc(CC(=O)N[C@H]3CCOc4ccncc43)nc21 [Example 4.8, (S)-2-(5-amino-7-methoxy-[1,2,4]triazolo[1,5-c]quinazolin-2-yl)-N-(3,4-dihydro-2H-pyrano[3,2-c]pyridin-4-yl)acetamide]
Second: COc1cccc2c1nc(N)n1nc(CN(CCC(F)(F)F)CC3CCN(c4ncc(F)cn4)CC3)nc21 [Example 14.4, 2-((((1-(5-fluoropyrimidin-2-yl)piperidin-4-yl)methyl)(3,3,3-trifluoropropyl)amino)methyl)-7-methoxy-[1,2,4]triazolo[1,5-c]quinazolin-5-amine]
The pIC50 of the first is 0.47 log units lower: 6.95 for the first, 7.42 for the second.
